According to patent US20090117563A1, “Identification of TRPML3 (MCOLN3) as a Salty Taste Receptor and Use in Assays for Identifying Taste (Salty) Modulators and/or Therapeutics that Modulate Sodium Transport, Absorption or Excretion and/or Aldosterone and/or Vasopressin Production or Release” (priority 2007, published 2009):

Key:
A419P TRPML3 [1] = target: T1, A419P TRPML3 (Homo sapiens, UniProt Q8TDD5, A419P); experiment: FLIPR membrane potential dye assay, HEK293 cells expressing A419P-TRPML3; type: cell-based; conditions: for effect on basal fluorescence, dose dependence: increasing concentrations of gadolinium, compared to RFP-transfected cells
T1 construct: expressed in transfected cells
T1 sequence (Q8TDD5 1-553 A419P): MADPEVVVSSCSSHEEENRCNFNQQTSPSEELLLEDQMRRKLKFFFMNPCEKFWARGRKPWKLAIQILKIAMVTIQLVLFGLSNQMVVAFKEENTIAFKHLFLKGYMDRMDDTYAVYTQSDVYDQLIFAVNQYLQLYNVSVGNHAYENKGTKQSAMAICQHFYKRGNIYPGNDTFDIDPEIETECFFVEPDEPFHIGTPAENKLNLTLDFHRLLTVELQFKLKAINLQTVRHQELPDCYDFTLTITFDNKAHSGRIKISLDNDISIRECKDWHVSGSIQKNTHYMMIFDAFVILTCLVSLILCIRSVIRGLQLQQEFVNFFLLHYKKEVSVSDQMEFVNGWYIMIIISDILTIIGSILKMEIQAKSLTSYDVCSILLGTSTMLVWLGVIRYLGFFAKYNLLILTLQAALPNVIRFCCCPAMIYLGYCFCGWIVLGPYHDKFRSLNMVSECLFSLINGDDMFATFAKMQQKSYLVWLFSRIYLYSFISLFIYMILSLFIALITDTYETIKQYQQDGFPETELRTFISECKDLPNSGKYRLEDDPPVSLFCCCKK
Text: Specific cell-based assays for the discovery of TRPML3 modulators were developed which that could ultimately be used in food and beverages to modulate saltiness perception. A419P-TRPML3 function was monitored in HEK293 cells transiently transfected or transduced with the gene encoding A419P-TRPML3 and using specific membrane potential dyes (FMPs; Molecular Devices).
(§1) HEK293 cells were transiently transfected with RFP, αENaC or A419P-TRPML3 and were loaded with a membrane potential dye (R-8034; Molecular Devices) in HBSS at room temperature for 30 minutes. Membrane potential (fluorescent signal) was monitored on a FLIPR system (Molecular Devices).
(§2) HEK293 cells were transiently transfected with RFP or A419P-TRPML3 and were loaded with a membrane potential dye (R-8034; Molecular Devices) in HBSS at room temperature for 30 minutes. Membrane potential (fluorescent signal) was monitored on a FLIPR system (Molecular Devices).
as §2, with “HBSS, NMDG and increasing concentrations of gadolinium were added to the cells and resulting changes in membrane” for “Membrane”
as §1, with “RFP, A419P-TRPML3 or” for “RFP,”, “plasmid” for “or A419P-TRPML3”, “HBSS (control), 3 mM gadolinium and 30 uM Amiloride were added to the cells and resulting changes in membrane” for “Membrane”

A419P TRPML3 [2] = target: T1, A419P TRPML3; experiment: IonWorks PPC patch clamp, inducible CHO-K1 cell line expressing A419P TRPML3; type: cell-based; conditions: 4 mM GdCl3 solution
Text: Different versions of human TRPML3 can be assayed, included but not limited to a wild-type version and a gain of function mutant version encoding an A419P substitution. TRPML3 can be expressed in CHO-K1 cells by one of three methods: (i) transient transfection (ii) BacMam transduction or (iii) a stable transfection and TRPML3 function measured using the perforated patch clamp technique on an IonWorks Quattro instrument (MDS Analytical Technologies). Cells are dissociated with Detachin cell detachment solution (Genlantis), centrifuged, and resuspended in external recording buffer (150 mM NaCl, 2 mM KCl, 1.5 mM CaCl2, 1 mM MgCl2, 10 mM HEPES pH 7.4 with NaOH). […]
The following description illustrates the IonWorks screening assay to identify compounds that modulate (activate or block) TRPML3 function. […] In each scan currents are measured as the voltage is modified (see example voltage command trace in FIG. 29).
Compounds will be applied at concentrations between ˜1 uM and 100 uM. […] Compounds that enhance TRPML3 by affecting the voltage dependent rectification will be preferentially detected at −40 mV where the rectification is strong while compounds that block TRPML3 will be preferentially detected at −120 mV where the TRPML3 currents are larger. To quantitate the effect of a compound on TRPML3 function, we use the following formula: [(A−Ao)/(B−Bo)]×100. […]

SMILES: [Cl][Gd]([Cl])[Cl] [gadolinium, gadolinium chloride]
- effect on basal fluorescence counts, specificity (A419P TRPML3 [1]; 3 mM gadolinium, A419P-TRPML3 versus αENaC transfected cells): preferentially reduces basal fluorescence counts
- effect on basal fluorescence, dose dependence (A419P TRPML3 [1]): significantly reduces the basal fluorescence
- effect on basal fluorescence, dose dependence (A419P TRPML3 [1]; listed as Gadolinium): reversed the increase in fluorescence in a dose-dependent and specific fashion
- effect on basal fluorescence (membrane potential) (A419P TRPML3 [1]; transiently transfected HEK293, single addition of gadolinium): significantly reduces the basal fluorescence
- effect on TRPML3 current (IonWorks scan) (A419P TRPML3 [2]): blocks TRPML3 current
